From the NIST ThermoML archive (doi:10.1021/je060271a)

Details: 323.14 K, Liquid, Vibrating tube method

CCCCCC(=O)OCC(COC(=O)CCCCC)(COC(=O)CCCCC)COC(=O)CCCCC [pentaerythritol tetrahexanoate]
Details | mass density [kg/m3]
4906.2 kPa | 976
4926.8 kPa | 976.1
4951.5 kPa | 976.2
4972.1 kPa | 976.2
4997.4 kPa | 976.1
5018.6 kPa | 976.1
5041 kPa | 976.1
5066.8 kPa | 976.1
5088.6 kPa | 976.2
5114.4 kPa | 976.3
5140.5 kPa | 976.2
5162.3 kPa | 976.3
5184.8 kPa | 976.5
5212 kPa | 976.3
5233.9 kPa | 976.3
5261.4 kPa | 976.3
5289.1 kPa | 976.3
5313.2 kPa | 976.3
5337.7 kPa | 976.4
5363.2 kPa | 976.4
5392.1 kPa | 976.2
5421.2 kPa | 976.4
5445 kPa | 976.5
5469.8 kPa | 976.5
5499.7 kPa | 976.6
5530.1 kPa | 976.4
5555.5 kPa | 976.6
5581.3 kPa | 976.6
5611.7 kPa | 976.5
5635.4 kPa | 976.5
5659 kPa | 976.7
5678.8 kPa | 976.7
5695.8 kPa | 976.6
5715.8 kPa | 976.7
5733 kPa | 976.7
5749.7 kPa | 976.7
5769.6 kPa | 976.7
5786.4 kPa | 976.7
5806.6 kPa | 976.8
5823.9 kPa | 976.7
5844.1 kPa | 976.7
5861.2 kPa | 976.8
5882.2 kPa | 976.8
5899.3 kPa | 976.7
5920.4 kPa | 976.7
5941.5 kPa | 976.8
5959.1 kPa | 976.8
5976.7 kPa | 976.8
5997.6 kPa | 976.8
6015.1 kPa | 976.8
6036.5 kPa | 977
6054.3 kPa | 977
6075.8 kPa | 976.9
6094.3 kPa | 976.9
6115.5 kPa | 976.8
6134 kPa | 976.9
6155.6 kPa | 976.8
6178.1 kPa | 977.1
6196.6 kPa | 977
6361.8 kPa | 977.1
6380.8 kPa | 977.1
6403.6 kPa | 977.1
6426.8 kPa | 977.2
6446.5 kPa | 977.1
6465.6 kPa | 977.2
6489.3 kPa | 977.1
6576.9 kPa | 977.3
6597.3 kPa | 977.2
6621.1 kPa | 977.3
6641.5 kPa | 977.4
6666.6 kPa | 977.2
6690.9 kPa | 977.4
6711.7 kPa | 977.4
6732.6 kPa | 977.4
6757.6 kPa | 977.4
6778.7 kPa | 977.3
6803.9 kPa | 977.3
6825.5 kPa | 977.5
6851.4 kPa | 977.5
6873.7 kPa | 977.5
6899.4 kPa | 977.5
6921.3 kPa | 977.5
6947.4 kPa | 977.5
6973.7 kPa | 977.5
6995.9 kPa | 977.5
7019.4 kPa | 977.6
7043.5 kPa | 977.5
7070.3 kPa | 977.6
7093.1 kPa | 977.7
7120.7 kPa | 977.6
7143.5 kPa | 977.6
7170.6 kPa | 977.7
7194.3 kPa | 977.8
7222.1 kPa | 977.7
7250.4 kPa | 977.7
7273.9 kPa | 977.8
7297.5 kPa | 977.6
7326.7 kPa | 977.8
7351.7 kPa | 977.8
7381.1 kPa | 977.8
7460.9 kPa | 977.8
7573.4 kPa | 977.9
7631.6 kPa | 977.9
7784.6 kPa | 978.1
7812.4 kPa | 978
7839.9 kPa | 978.1
7863.3 kPa | 978.1
8237.7 kPa | 978.4
8267.6 kPa | 978.3
8292.8 kPa | 978.4
8323.1 kPa | 978.5
8348.5 kPa | 978.4
8379 kPa | 978.5
8410 kPa | 978.4
8436.3 kPa | 978.5
8466.9 kPa | 978.5
8498.7 kPa | 978.5
8525.2 kPa | 978.6
8557.3 kPa | 978.5
8584.2 kPa | 978.6
8617 kPa | 978.7
8645.1 kPa | 978.7
8678.7 kPa | 978.7
8712.2 kPa | 978.7
8740.6 kPa | 978.8
8775.3 kPa | 978.7
8805.1 kPa | 978.8
8840.3 kPa | 978.8
8877 kPa | 978.8
8907.8 kPa | 978.7
8944 kPa | 978.8
8971.8 kPa | 978.9
8997.6 kPa | 978.9
9020.2 kPa | 978.9
9142.1 kPa | 979
9164.7 kPa | 979.1
9183.3 kPa | 978.9
9204.3 kPa | 978.9
9226.4 kPa | 978.9
9720.5 kPa | 979.3
9812.4 kPa | 979.5
9820.8 kPa | 979.4
9834.6 kPa | 979.4
9846 kPa | 979.4
9859.9 kPa | 979.4
